This is an account of results in patent publication US20110123623A1, “RHAMNOLIPID MECHANISM” (priority 2009, published 2011).

The term inhibition denotes the change of the read-out against control, counted positive when it falls.

The structures appear in SMILES notation.

Data set [1] relates to neonatal human keratinocytes. The experiment in a line: Colony forming efficiency of neonatal human keratinocytes. Type of data set: cell-based. The note with it: GM medium with 10% fetal bovine serum. How it is done: Colony forming efficiency of neonatal human keratinocytes treated with Di-rhamnolipid W3CTS.
The stimulation was most significant at 100 μg/ml and 50 μg/ml the colony forming ability was increased by 34% at 50 μg/ml of Di-rhamnolipid W3CTS. The results are consistent with the effects of Di-rhamnolipid W3CTS on the neonatal human keratinocyte viability in GM with 10% fetal bovine serum.

Data set [2] concerns neonatal human keratinocytes. Description: Neonatal human keratinocyte cell culture (proliferation, viability, apoptosis). Type of data set: cell-based. How it is done:
On the contrary, Di-rhamnolipid W3CTS in the presence of serum and at high concentration of calcium increased the proliferation and the viability of keratinocytes and decreased the caspase activity. At the concentration of 50 μg/ml, Di-rhamnolipid W3CTS maximally stimulated the proliferation (34%) and the viability of keratinocytes (25%) as compared to control, and decreased the apoptosis (49%).

The target of data set [3] is dopamine D1 (human recombinant) (Homo sapiens, UniProt P21728). Description: Dopamine D1 receptor binding of [3H]SCH23390. The note with it: 100 μM in 0.5% DMSO. How it is done:
At the concentration of 100 μM Di-rhamnolipid W3CTS in 0.5% DMSO, Di-rhamnolipid W3CTS inhibited 100% dopamine D1 (human recombinant) binding of [^3H] SCH23390. At the same concentration of 100 μM W3CTS in 0.5 DMSO measuring binding of [^3H]Spiperone to human dopamine D2L (human recombinant) was inhibited by 53%.

A further data set concerns C. albicans. Description: Immunomodulation activity: C. albicans challenge survival. Type of data set: in vivo, mouse. The note with it: 100 mg/kg i/p 24 hours before i/v C. albicans challenge; ICR male mice. How it is done:
Di-rhamnolipid W3CTS was administered i/p (100 mg/kg) to groups of 10 ICR derived male mice weighing 24±2 g at 24 hours before i/v challenge with a suspension of C. albicans (1×10^7 cfu/mouse) sufficient to result in 90-100% mortality within 10 days in vehicle treated animals. Survival of 20 percent or more (≧20) of the animals is considered significant and indicates possible immunomodulation activity. Reference agent was lipopolysaccharide 0.3 mg/kg i/p.

The test system of data set [4] is Swiss-Webster female mice. The experiment in a line: Acute cutaneous irritation, mouse ear assay (Part A). The class given is in vivo. The following applies: single topical application, up to 24 hours. How it is done: Effects of Di-rhamnolipid W3CTS on TPA/pyr induced acute inflammation in the ears of Swiss-Webster female mice.
The aim of this study was two-fold. In Part A the potential of a single topical application of W3CTS to cause acute cutaneous irritation (up to 24 hours) was measured in a mouse ear assay system. […] The aim of Part B was to determine the effects of a single topical administration of W3CTS on acute dermal inflammation induced by TPA/pyr, Part B was designed to differentiate the ability of Di-rhamnolipid W3CTS at concentration 1 mg/ml to prevent, inhibit or reverse induced ear inflammation.

In data set [5] the test system is female Swiss-Webster mice. Description: Induction and challenge phases of DTH in the mouse ear. The class given is in vivo. An excerpt:
Effects of Di-Rhamnolipid W3CTS on the Induction and Challenge Phases of DTH in Female Swiss-Webster Mice.
The aims of this study were first, to evaluate the in-vivo effects of Di-rhamnolipid W3CTS on aspects of a T-cell mediated immune response in mice and second, to determine if Di-rhamnolipid W3CTS was a sensitizing agent. This formed one of a series of studies to evaluate the toxicity and functionality of Di-rhamnolipid W3CTS.
The model used was induced delayed-type hypersensitivity (DTH) response in the mouse ear. In general, the DTH model involves administering a sensitizing agent mixed with an adjuvant, one or more occasions to prime the immune system. One to two weeks after the final induction and boost(s), animals are re-exposed to the sensitizing antigen, with a small volume injected intradermally in the ear, to elicit a secondary response (challenge). The ear swells during the secondary T-cell mediated response, and thus the change in ear thickness from prestimulation can be quantified. The present study had several sub-components testing different components of the immune response.
Parts A & B followed the standard procedure, in which the treatment test article, Di-rhamnolipid W3CTS, was administered topically concurrent to the challenge with sensitizing agent. Additionally, the effects of Di-rhamnolipid W3CTS on development of the primary immune response were also tested (Parts C&D). Therefore it was possible to obtain preliminary information about potential activity of Di-rhamnolipid W3CTS on more than one arm of the immune system. In parts B, C, and D, the protein ovalbumin, in CFA (Complete Freund's Adjuvant) or IFA (Incomplete Freund's Adjuvant) was used as the sensitizing agent as it is a standard with well-characterized, quantifiable activity in DTH. An additional compound, DNCB (1-chloro-2,4-di-nitro benzene) with gamma interferon (IFN-gamma), was also used (Group A) in order to maximize the opportunity to characterize the activity of Di-rhamnolipid W3CTS on T-cell mediated immunity. […]

The test system of data set [6] is normal Sprague-Dawley rats. The experiment in a line: Full-thickness burn wounds, topical treatment. The class given is in vivo, rat. How it is done: The effects of Di-rhamnolipid W3CTS on full-thickness burn wounds in normal Sprague-Dawley rats.
Di-rhamnolipid W3CTS was prepared in a eucerine ointment applied topically on full-thickness burn wounds in normal Sprague-Dawley rats covering 5% of the whole skin area. The rate of wound closure was measured over the period of 45 days. The collagen content was evaluated microscopically, by performing densitometric analysis on Verhoeff's stained histopathological slides of wound biopsies taken at the end of 45th day of di-rhamnolipid treatment. The treatment of full thickness-burn wounds covering 5% of the whole body skin area with topical applications (2 per day) of 0.1% di-rhamnolipid in eucerine ointment accelerated the closure of wounds on day 21 of the treatment by 32% compared to the control (p<0.05). […] The results of this study raise the possibility of potential efficacy of di-rhamnolipid in accelerating normal wound healing and perhaps in overcoming defects associated with healing failure in chronic wounds.

Chain of dopamine D1 (human recombinant) (P21728 whole entry): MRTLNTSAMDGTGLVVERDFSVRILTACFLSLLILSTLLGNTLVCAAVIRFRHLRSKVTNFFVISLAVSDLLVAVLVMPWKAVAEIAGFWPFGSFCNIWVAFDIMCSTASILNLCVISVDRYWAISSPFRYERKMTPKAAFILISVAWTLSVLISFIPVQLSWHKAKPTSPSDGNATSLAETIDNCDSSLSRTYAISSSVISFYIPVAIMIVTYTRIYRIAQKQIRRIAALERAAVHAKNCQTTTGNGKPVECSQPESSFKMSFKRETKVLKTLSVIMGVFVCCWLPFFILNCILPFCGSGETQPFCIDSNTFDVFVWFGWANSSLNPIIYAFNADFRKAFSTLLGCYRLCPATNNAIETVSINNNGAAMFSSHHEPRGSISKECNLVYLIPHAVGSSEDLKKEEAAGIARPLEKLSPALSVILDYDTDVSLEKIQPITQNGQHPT

Take `CCCCCCCC(CC(=O)O)OC(=O)CC(CCCCCCC)OC1OC(C)C(O)C(O)C1OC1OC(C)C(O)C(O)C1O` (stereo not shown) [Di-rhamnolipid W3CTS]: the “colony forming ability increase” value in data set [1] (50 μg/ml) came to 34%. Moreover, the “growth of keratinocyte colonies” value in data set [1] (100, 50, 10 and 1 μg/ml) is given as “stimulated the growth of keratinocyte colonies”. In data set [2] (50 μg/ml, serum, high calcium), the “decrease of apoptosis of keratinocytes” value amounted to 49%, the “stimulation of proliferation of keratinocytes vs control” value amounted to 34% and the “stimulation of viability of keratinocytes vs control” value amounted to 25%. Moreover, in data set [2] (200 μg/ml and 500 μg/ml, causing necrosis), the “cell proliferation and viability, keratinocytes” value is “fully inhibited cell proliferation and viability”. Further, in data set [2] (without serum, low calcium, 100 μg/ml, caused necrosis), the “proliferation and viability of keratinocytes” value is “fully inhibited proliferation and viability”. For the same compound, the inhibition at 100 µM in data set [3] came out at 100%. For the same compound, the “immunomodulation activity (survival of 20 percent or more considered significant)” value in the data set on C. albicans is “possible significant immunomodulation activity”. In addition, in data set [4], the “acute cutaneous irritation (ear erythema)” value is reported as “did not cause acute cutaneous irritation”. Further, the “effect on subsequent DTH response (Part C)” value in data set [5] (concurrently administered at induction with ovalbumin/IFA) is listed as “inhibit the subsequent DTH response”. Moreover, the “effect on primary immune response (Part D)” value in data set [5] (given at induction) was “did not show potential to enhance a primary immune response”. Moreover, the “effect on secondary immune response, DTH (Part B)” value in data set [5] (topical at challenge, ovalbumin/CFA) is listed as “sustained or increased DTH response”. The “decrease of collagen content in burn wounds vs vehicle” value in data set [6] (0, 1% in eucerine, biopsies at end of 45th day, p<0.05) was found to be 47.5%. Moreover, in data set [6] (0.1% in eucerine ointment, 2 per day topical, day 21, p<0.05), the “acceleration of closure of wounds vs control” value was 32%. In data set [6] (0.1% ointment, day 35), the wound closure result is “wounds closed in all animals”.
